System: SARS-CoV-2
Experiment: Confirmation test of suppressing effect against SARS-CoV-2 proliferation (nucleocapsid Western blotting, VeroE6/TMPRSS2 cells)
Format: cell-based
Conditions: 20 μM Pin1 inhibitor, VeroE6/TMPRSS2 cells, MOI 10, cell lysate 8 hours after infection, nucleocapsid band area vs no inhibitor; for inhibition at 20 µM: Severe acute respiratory syndrome coronavirus 2, VeroE6/TMPRSS2, 8 h, read-out: Inhibition Rate

Structure (SMILES) | inhibition at 20 µM | Inhibition Rate
O=C(NCCC[C@H](NC(=O)n1c2ccccc2c2ccccc21)C(=O)O)c1ccc2ccccc2c1 [H-717] | 87% | –
O=C(Nc1ccc(OCc2ccc3ccccc3c2)cc1C(=O)O)c1ccc2c(c1)OCCO2 [H-787] | 97% | –
O=C(Cc1ccc2ccccc2c1)O[C@H](Cc1ccc2ccccc2c1)C(=O)O [H-149] | 99% | –
O=C(COc1cccc2ccccc12)O[C@H](Cc1ccc2ccccc2c1)C(=O)O [H-179] | 97% | –
O=C(O)/C(=C/c1ccc2ccccc2c1)CC(=O)N1CCCc2ccccc21 [H-743] | 59% | –
COC(=O)c1cc(NC(=O)c2cnc3ccccc3n2)cc(NC(=O)n2c3ccccc3c3ccccc32)c1 [H-685] | 58% | –
O=C(O)c1cc(NC(=O)c2cnc3ccccc3n2)cc(NC(=O)n2c3ccccc3c3ccccc32)c1 [H-691] | 52% | –
O=C(O)[C@@H](Cc1ccc2ccccc2c1)NC(=O)N1c2ccccc2Oc2ccccc21 [H-162] | 99% | –
COc1ccc2c(c1)C(C(=O)O[C@H](Cc1ccc3ccccc3c1)C(=O)O)c1ccccc1-2 (stereo partly drawn) [H-254] | 94% | –
O=C(O)[C@@H](Cc1ccc2ccccc2c1)OC(=O)N1c2ccccc2Oc2ccccc21 [H-157] | 100% | –
O=C(Nc1ccc(OCc2ccccc2)cc1C(=O)O)c1ccc2ccccc2n1 [H-339] | 76% | –
O=C(Cc1cccc2ccccc12)O[C@H](Cc1ccc2ccccc2c1)C(=O)O [H-151] | 98% | –
COC(=O)c1cc(NC(=O)c2ccc(CN)cc2)cc(NC(=O)n2ccc3ccccc32)c1 [H-881] | 88% | –
O=C(N[C@@H](CCCN1C(=O)c2ccccc2C1=O)C(=O)O)C1c2ccccc2-c2ccccc21 [H-619] | 94% | –
O=C(NCCC[C@H](NC(=O)C1c2ccccc2-c2ccccc21)C(=O)O)c1cccnc1 [H-715] | 63% | –
O=C(Cn1c2ccccc2c2ccccc21)Nc1ccc(OCc2ccccc2)cc1C(=O)O [H-835] | 99% | –
O=C(Nc1ccc(OCc2ccccc2)cc1C(=O)O)OCc1ccccc1 [H-78] | 96% | –
O=C(Nc1ccc(OCc2ccc3ccccc3c2)cc1C(=O)O)c1ccc2ccccc2c1 [H-487] | – | 63%
O=C(Nc1ccc(OCc2ccc3ccccc3c2)c(C(=O)O)c1)c1ccc2ccccc2c1 [H-448] | 100% | –
O=C(O[C@H](Cc1ccc2ccccc2c1)C(=O)O)C1c2ccccc2-c2ccc(F)cc21 (stereo partly drawn) [H-262] | 94% | –

Structure (SMILES) | inhibition at 20 µM | Inhibition Rate
COC(=O)c1cc(NC(=O)CC2c3ccccc3-c3ccccc32)cc(NC(=O)c2ccc3ccccc3c2)c1 [H-857] | 55% | –
O=C(O)c1cc(OCc2ccccc2)ccc1NS(=O)(=O)c1ccc2ccccc2c1 [H-338] | 99% | –
O=C(CC1c2ccccc2-c2ccccc21)O[C@H](Cc1ccc2ccccc2c1)C(=O)O [H-106] | 100% | –
O=C(O)[C@@H](Cc1ccc2ccccc2c1)OC(=O)n1c2ccccc2c2ccccc21 [H-175] | 100% | –
O=C(O[C@H](Cc1ccc2ccccc2c1)C(=O)O)C1c2ccccc2-c2ccccc21 [H-614] | 96% | –
O=C(COc1ccc2ccccc2c1)Nc1ccc(OCc2ccccc2)cc1C(=O)O [H-362] | 99% | –
O=C(O)[C@H](NC(=O)n1c2ccccc2c2ccccc21)c1ccccc1 [H-348] | 81% | –
COC(=O)c1cc(NC(=O)c2ccc(CN)cc2)cc(NC(=O)n2c3ccccc3c3ccccc32)c1 [H-870] | 97% | –
O=C(Nc1ccc(OCc2ccccc2)cc1C(=O)O)c1ccc2ccccc2c1 [H-429] | 99% | –
O=C(O[C@H](Cc1ccc2ccccc2c1)C(=O)O)c1ccc2ccccc2c1 [H-30] | 99% | –
NCc1ccc(C(=O)Nc2cc(NC(=O)n3c4ccccc4c4ccccc43)cc(C(=O)O)c2)cc1 [H-871] | 61% | –
CC(C)(C)OC(=O)Nc1cc(NC(=O)n2ccc3ccccc32)cc(C(=O)O)c1 [H-873] | 67% | –
O=C(O[C@H](Cc1ccc2ccccc2c1)C(=O)O)c1cccc(Oc2ccccc2)c1 [H-130] | 100% | –
O=C(O)c1cc(NC(=O)c2ccc3c(c2)OCCO3)cc(NC(=O)n2ccc3ccccc32)c1 [H-876] | 69% | –
O=C(O)[C@@H](Cc1ccc(OCc2ccccc2)cc1)NC(=O)n1c2ccccc2c2ccccc21 [H-337] | 100% | –
O=C(O)c1cc(OCc2ccc3ccccc3c2)ccc1OCc1ccc2ccccc2c1 [H-488] | 100% | –
Nc1cc(NC(=O)CN(c2ccccc2)c2ccccc2)cc(C(=O)O)c1 [H-817] | 61% | –
COC(=O)c1cc(N)cc(NC(=O)CN(c2ccccc2)c2ccccc2)c1 [H-816] | 63% | –
NCc1ccc(C(=O)N[C@H](Cc2ccc3ccccc3c2)C(=O)O)cc1 [H-851] | 59% | –
COC(=O)c1cc(NC(=O)COc2ccccn2)cc(NC(=O)n2c3ccccc3c3ccccc32)c1 [H-762] | 83% | –

Structure (SMILES) | inhibition at 20 µM | Inhibition Rate
O=C(O)CCC(Cc1ccc2ccccc2c1)OC(=O)c1ccc2ccccc2c1 (stereo not drawn) [H-507] | 99% | –
O=C(O[C@H](Cc1ccc2ccccc2c1)C(=O)O)c1ccc(-c2ccccc2)cc1 [H-33] | 100% | –
O=C(O)c1cc(NC(=O)c2ccc3ccccc3c2)cc(NC(=O)n2ccc3ccccc32)c1 [H-878] | 56% | –
O=C(O)[C@@H](Cc1ccc2ccccc2c1)OCc1ccc2ccccc2c1 [H-181] | 99% | –
O=C(NCCC[C@H](NC(=O)n1c2ccccc2c2ccccc21)C(=O)O)c1cccnc1 [H-708] | 62% | –
O=C(O)c1cc(NC(=O)C2COc3ccccc3O2)cc(NC(=O)n2c3ccccc3c3ccccc32)c1 (stereo not drawn) [H-693] | 77% | –
O=C(O)[C@@H](Cc1ccc(OCc2ccccc2)cc1)NC(=O)N1c2ccccc2Oc2ccccc21 [H-336] | 98% | –
O=C(O)c1cc(OCc2ccc3ccccc3c2)cc(OCc2ccc3ccccc3c2)c1 [H-491] | 91% | –
O=C(Nc1ccc(OCc2ccccc2)cc1C(=O)O)c1cccc(Oc2ccccc2)c1 [H-363] | 99% | –
COc1cc(OC)cc(C(=O)O[C@H](Cc2ccc3ccccc3c2)C(=O)O)c1 [H-198] | 67% | –
Nc1cc(NC(=O)N(c2ccccc2)c2ccccc2)cc(C(=O)O)c1 [H-727] | 50% | –
O=C(O[C@H](Cc1ccc2ccccc2c1)C(=O)O)C(c1ccccc1)c1ccccc1 [H-134] | 98% | –
O=C(O[C@H](Cc1ccc2ccccc2c1)C(=O)O)c1ccc(Cl)c(Cl)c1 [H-269] | 98% | –
O=C(COc1ccc2ccccc2c1)O[C@H](Cc1ccc2ccccc2c1)C(=O)O [H-177] | 99% | –
O=C(O)[C@@H](Cc1ccc2ccccc2c1)OCc1ccccc1Oc1ccccc1 [H-464] | 100% | –
O=C(O)c1cc(NC(=O)n2c3ccccc3c3ccccc32)cc(NC(=O)n2c3ccccc3c3ccccc32)c1 [H-596] | 99% | –
O=C(Cc1cccc2ccccc12)Nc1ccc(OCc2ccccc2)cc1C(=O)O [H-839] | 83% | –
O=C(Nc1ccc(OCc2ccccc2)cc1C(=O)O)c1ccc2c(c1)OCCO2 [H-800] | 91% | –
O=C(O)c1ccc(OCc2ccc3ccccc3c2)cc1OCc1ccc2ccccc2c1 [H-489] | 99% | –
O=C(COc1ccccn1)Nc1cc(NC(=O)n2c3ccccc3c3ccccc32)cc(C(=O)O)c1 [H-763] | 97% | –
